This assay deals with Cln2^R207X mice. The assay can be described thus: SubC burden (immunohistochemistry) in brain of Cln2^R207X mice. Particulars: for Subunit C burden: somatosensory cortex. Type of assay: in vivo, mouse. On the procedure: Specific experimental details are included in figure legends. In general, after collection and preparation, MEFs and PNCs were dosed with vehicle or AF38469 (40 nM, 400 nM. or 4 μM) on DIV3 and DIV5. On DIV7, cells were treated with the following dyes: Hoechst 33342 (1:1000 dilution), LysoTrackerT™ Red DND-99 (1:10,000 dilution), fixed, and imaged. Mice were given vehicle or AF38469 (78.125 μg/ml, 3.125 μg/ml, 0.3125 μg/ml or 0.03125 μg/ml equating approximately to 250 μg/mouse/day, 10 μg/mouse/day, 1 μg/mouse/day, and […], respectively, given a mouse's daily water intake of approximately 3.2 ml per day) in drinking water beginning at wean. Body weight was measured bi-weekly, and a force actimeter test was performed on Cln2^R207X mice at 10 weeks of age. Body weight was measured every month for Cln3^Δex7/8 mice. At 11 and 16 weeks of age, respectively, Cln2^R207X and Cln3^Δex7/8 mice along with age matched wild type control mice were CO2 euthanized and intracardially perfused with PBS. Brains were collected and placed on a 1 mm sagittal brain block. Brains were sliced at the midline and 3 mm right of the midline. One hemisphere was fixed in 4% PFA and sectioned at 50 microns on a vibratome. Immunohistochemistry was performed on free-floating sections. For mitochondrial ATP synthase subunit C (SubC), glial fibrillary acidic protein (GFAP), and cluster of differentiation 68 (CD68) immunolabeling, primary antibodies included anti-SubC (Abcam, ab181243; 1:1000), anti-GFAP (Dako, Z0334; 1:5000), anti-CD68 (AbD Serotec, MCA1957; 1:2000), and secondary antibodies included anti-rabbit biotinylated (Vector Labs, BA-1000 1:1000) and anti-rat (Vector Labs, BA-9400 1:1000). Coverslips were mounted on slides using antifade-mounting media and were stored in the dark before imaging. Sections were imaged and analyzed using an Aperio Digital Pathology Slide Scanner (AT2) and associated software. Images were extracted from S1BF of the somatosensory cortex and the VPM/VPL of the thalamus, with multiple images taken of multiple tissues from each animal.
Short-term chronic treatment with AF38469 reduces storage material burden in Cln2^R207X and Cln3^Δex7/8 mice. Beginning at wean, wild type and Cln2^R207X mice were treated with vehicle (0.2408% DMSO) or AF38469 (0.03125 μg/ml, 0.3125 μg/ml, 3.125 μg/ml, 78.125 μg/ml) continuously through the drinking water continuing until sacrifice at 11 weeks. […] Sections were imaged and analyzed using an Aperio Digital Pathology Slide Scanner (AT2) and associated software. […] Percent area of immunoreactivity were quantified using a threshold analysis in ImageJ™. […]

In the case of `Cc1cccc(NC(=O)c2ccc(C(F)(F)F)cc2C(=O)O)n1` [AF38469, 2-((6-methylpyridin-2-yl)carbamoyl)-5-(trifluoromethyl)benzoic acid], the “Subunit C burden” value (0.03125 μg/ml, 0.3125 μg/ml in drinking water, 11 weeks) is “significantly decreased” and the “Subunit C burden” value (78.125 μg/ml in drinking water, 11 weeks) is reported as “significantly decreased”. Further, under “3.125 μg/ml, 78.125 μg/ml in drinking water, VPM/VPL of the thalamus, 11 weeks, vs vehicle Cln2^R207X”, the SubC burden result was “did not have an impact”. The SubC accumulation entry (overall statement, short term treatment, Cln2^R207X) is listed as “reduces”.

Source of the values: patent US20240197700A1, “Methods and Compositions for Treating Lysosomal Storage Disorders” (Sanford Health, priority 2021, published 2024).
